Active and inactive are the calls of the source. The calls are words filed in the database; no cut-off is given here.
Assays:
MDA-MB-468 [1] = experiment: Induction of apoptosis in human MDA-MB-468 cells at 20 uM incubated for 72 hrs by Annexin-V/PI staining based flow cytometric analysis; assay type: functional, cell-based
MDA-MB-468 [2] = experiment: Induction of apoptosis in human MDA-MB-468 cells assessed as increase in cleaved PARP1 level incubated for 72 hrs by Western blot analysis; assay type: functional, cell-based; conditions: dose 2.5-10 µM, DDE = dose-dependent effect
MDA-MB-468 [3] = experiment: Induction of apoptosis in human MDA-MB-468 cells assessed as increase in cleaved caspase 3 level incubated for 72 hrs by Western blot analysis; assay type: functional, cell-based; conditions: dose 2.5-10 µM, DDE = dose-dependent effect
MDA-MB-231 [4] = experiment: Induction of apoptosis in human MDA-MB-231 cells assessed as increase in cleaved PARP1 level incubated for 72 hrs by Western blot analysis; assay type: functional, cell-based; conditions: dose 2.5-10 µM, DDE = dose-dependent effect
MDA-MB-231 [5] = experiment: Induction of apoptosis in human MDA-MB-231 cells assessed as increase in cleaved caspase 3 level incubated for 72 hrs by Western blot analysis; assay type: functional, cell-based; conditions: dose 2.5-10 µM, DDE = dose-dependent effect
MDA-MB-231 [6] = experiment: Induction of apoptosis in human MDA-MB-231 cells at 10 uM incubated for 72 hrs by Annexin-V/PI staining based flow cytometric analysis; assay type: functional, cell-based
MDA-MB-468 [7] = experiment: Inhibition of DNA repair activity in human MDA-MB-468 cells assessed as inhibition of NHEJ activity measured every 12 hrs for 72 hrs by luciferase based host cell reactivation assay; assay type: functional
MDA-MB-231 [8] = experiment: Inhibition of DNA repair activity in human MDA-MB-231 cells assessed as inhibition of NHEJ activity measured every 12 hrs for 72 hrs by luciferase based host cell reactivation assay; assay type: functional
Fatty acid synthase [9] = biological target: T1, Fatty acid synthase (Homo sapiens, UniProt P49327); experiment: Inhibition of FASN in human MDA-MB-231 cells overexpressing FASN assessed as decrease in endogenous FFA level at IC50 concentration incubated for 72 hrs; assay type: cell-based
Target sequence in this assay (P49327 whole entry, looked up): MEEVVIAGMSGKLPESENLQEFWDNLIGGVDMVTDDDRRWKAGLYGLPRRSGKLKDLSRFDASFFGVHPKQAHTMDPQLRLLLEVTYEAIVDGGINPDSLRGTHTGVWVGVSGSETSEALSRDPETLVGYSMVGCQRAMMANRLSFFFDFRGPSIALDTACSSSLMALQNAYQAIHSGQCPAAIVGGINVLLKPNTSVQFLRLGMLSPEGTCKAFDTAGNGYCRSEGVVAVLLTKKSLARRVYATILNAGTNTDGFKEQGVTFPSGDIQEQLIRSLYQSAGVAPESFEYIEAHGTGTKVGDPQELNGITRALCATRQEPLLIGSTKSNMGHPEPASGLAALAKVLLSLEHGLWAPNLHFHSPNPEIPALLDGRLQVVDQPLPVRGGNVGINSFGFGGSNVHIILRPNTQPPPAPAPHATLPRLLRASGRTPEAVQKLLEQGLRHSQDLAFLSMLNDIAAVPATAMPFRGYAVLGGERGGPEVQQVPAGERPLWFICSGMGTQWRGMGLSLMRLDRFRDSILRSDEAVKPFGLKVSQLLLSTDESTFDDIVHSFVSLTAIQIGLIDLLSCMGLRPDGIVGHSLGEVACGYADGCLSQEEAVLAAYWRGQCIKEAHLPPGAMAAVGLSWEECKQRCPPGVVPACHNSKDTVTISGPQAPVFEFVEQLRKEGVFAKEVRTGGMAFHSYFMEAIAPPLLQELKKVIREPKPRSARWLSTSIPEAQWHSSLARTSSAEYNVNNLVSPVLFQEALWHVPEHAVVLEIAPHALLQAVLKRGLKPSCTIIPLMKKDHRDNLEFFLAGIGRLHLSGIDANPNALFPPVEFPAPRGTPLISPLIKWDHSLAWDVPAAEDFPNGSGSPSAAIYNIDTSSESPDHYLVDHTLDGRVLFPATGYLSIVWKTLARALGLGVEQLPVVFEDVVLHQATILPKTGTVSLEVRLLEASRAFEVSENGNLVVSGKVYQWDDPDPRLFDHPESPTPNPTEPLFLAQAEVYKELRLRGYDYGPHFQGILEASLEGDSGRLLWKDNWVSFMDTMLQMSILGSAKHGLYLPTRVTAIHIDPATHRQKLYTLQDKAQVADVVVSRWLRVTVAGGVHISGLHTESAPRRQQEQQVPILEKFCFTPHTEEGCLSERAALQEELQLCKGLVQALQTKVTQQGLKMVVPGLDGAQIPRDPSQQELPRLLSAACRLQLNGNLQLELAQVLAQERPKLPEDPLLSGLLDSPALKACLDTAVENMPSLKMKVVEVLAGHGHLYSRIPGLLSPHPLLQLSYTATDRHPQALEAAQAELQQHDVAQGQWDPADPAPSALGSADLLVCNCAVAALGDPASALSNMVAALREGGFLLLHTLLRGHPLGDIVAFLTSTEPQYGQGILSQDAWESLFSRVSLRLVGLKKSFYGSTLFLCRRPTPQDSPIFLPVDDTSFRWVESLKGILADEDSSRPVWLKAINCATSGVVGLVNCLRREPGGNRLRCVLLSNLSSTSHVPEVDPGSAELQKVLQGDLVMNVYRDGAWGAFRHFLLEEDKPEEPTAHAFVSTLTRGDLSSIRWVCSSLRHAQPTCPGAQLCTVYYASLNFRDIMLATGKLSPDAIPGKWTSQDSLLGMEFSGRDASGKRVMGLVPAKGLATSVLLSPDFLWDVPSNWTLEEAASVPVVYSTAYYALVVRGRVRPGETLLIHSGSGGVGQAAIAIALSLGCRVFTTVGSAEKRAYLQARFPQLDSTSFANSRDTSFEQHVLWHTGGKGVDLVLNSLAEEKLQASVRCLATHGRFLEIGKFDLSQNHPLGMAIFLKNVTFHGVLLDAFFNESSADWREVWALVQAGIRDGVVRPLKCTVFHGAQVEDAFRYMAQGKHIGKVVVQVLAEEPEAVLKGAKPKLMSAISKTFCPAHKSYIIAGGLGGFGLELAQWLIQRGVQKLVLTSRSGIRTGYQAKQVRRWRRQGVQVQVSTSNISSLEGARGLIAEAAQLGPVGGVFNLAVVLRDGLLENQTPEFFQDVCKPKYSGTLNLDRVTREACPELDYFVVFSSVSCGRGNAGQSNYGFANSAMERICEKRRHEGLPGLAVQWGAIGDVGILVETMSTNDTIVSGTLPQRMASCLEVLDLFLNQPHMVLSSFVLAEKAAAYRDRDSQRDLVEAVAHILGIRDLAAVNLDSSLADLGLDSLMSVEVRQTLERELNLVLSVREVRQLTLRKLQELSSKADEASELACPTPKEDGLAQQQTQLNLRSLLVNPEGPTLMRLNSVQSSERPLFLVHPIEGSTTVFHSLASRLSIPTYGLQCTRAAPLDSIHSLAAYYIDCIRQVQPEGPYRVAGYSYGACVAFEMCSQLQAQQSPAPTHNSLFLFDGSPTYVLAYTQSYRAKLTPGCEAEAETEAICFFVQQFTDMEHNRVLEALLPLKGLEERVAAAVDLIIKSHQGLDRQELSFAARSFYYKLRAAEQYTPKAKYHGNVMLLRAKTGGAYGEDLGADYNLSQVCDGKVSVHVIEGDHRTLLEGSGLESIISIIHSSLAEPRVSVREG

MDA-MB-468 [10] = experiment: Induction of DNA damage in human MDA-MB-468 cells nucleus assessed as increase in gamma-H2AX punctate staining at 20 uM by DAPI staining based confocal microscopic imaging analysis; assay type: functional, cell-based
MDA-MB-231 [11] = experiment: Induction of DNA damage in human MDA-MB-231 cells nucleus assessed as increase in gamma-H2AX punctate staining at 10 uM by DAPI staining based confocal microscopic imaging analysis; assay type: functional, cell-based
MDA-MB-231 [12] = experiment: Induction of DNA damage in human MDA-MB-231 cells assessed as inhibition of PARP-1 expression incubated for 72 hrs by Western blot analysis; assay type: functional, cell-based; conditions: dose 2.5-10 µM, DDE = dose-dependent effect
MDA-MB-468 [13] = experiment: Induction of DNA damage in human MDA-MB-468 cells assessed as inhibition of PARP-1 expression incubated for 72 hrs by Western blot analysis; assay type: functional, cell-based; conditions: dose 2.5-10 µM, DDE = dose-dependent effect
MDA-MB-231 [14] = experiment: Induction of DNA damage in human MDA-MB-231 cells assessed as decrease in PARP-1 mRNA level at 2.5 to 10 uM incubated for 72 hrs by RT-PCR analysis; assay type: functional, cell-based; conditions: dose 2.5-10 µM
MDA-MB-468 [15] = experiment: Induction of DNA damage in human MDA-MB-468 cells assessed as decrease in PARP-1 mRNA level at 2.5 to 10 uM incubated for 72 hrs by RT-PCR analysis; assay type: functional, cell-based; conditions: dose 2.5-10 µM
MDA-MB-231 [16] = experiment: Induction of DNA damage in human MDA-MB-231 cells assessed as increase in gamma-H2AX level measured after 72 hrs by Western blot analysis; assay type: functional, cell-based; conditions: dose 2.5-10 µM, DDE = dose-dependent effect
MDA-MB-468 [17] = experiment: Induction of DNA damage in human MDA-MB-468 cells assessed as increase in gamma-H2AX level measured after 72 hrs by Western blot analysis; assay type: functional, cell-based; conditions: dose 2.5-10 µM, DDE = dose-dependent effect
MDA-MB-231 [18] = experiment: Effect on cell cycle distribution in human MDA-MB-231 cells assessed as accumulation of cells in sub-G1 phase at 10 uM incubated for 72 hrs by PI staining based flow cytometric analysis; assay type: functional
[19] = Induction of DNA damage in human KTB22 cells assessed as increase in gamma-H2AX level at IC50 concentration by Western blot analysis; assay type: toxicity, cell-based
[20] = Induction of DNA damage in human KTB34 cells assessed as increase in gamma-H2AX level at IC50 concentration by Western blot analysis; assay type: toxicity, cell-based
[21] = Induction of DNA damage in human KTB39 cells assessed as increase in gamma-H2AX level at IC50 concentration by Western blot analysis; assay type: toxicity, cell-based
MDA-MB-231 [22] = experiment: Antitumor activity against human MDA-MB-231 cells xenografted in NSG mouse assessed as reduction in tumor growth at 100 mg/kg, ip administered once daily for 22 days; assay type: functional, organism-based; conditions: time 22.0 day
MDA-MB-231 [23] = experiment: Antitumor activity against human MDA-MB-231 cells xenografted in NSG mouse assessed as reduction in tumor wet weight at 100 mg/kg, ip administered once daily for 22 days; assay type: functional, organism-based; conditions: time 22.0 day
[24] = Toxicity in NSG mouse xenografted with human MDA-MB-231 cells assessed as effect on body weight at 100 mg/kg, ip administered once daily for 22 days; assay type: organism-based; conditions: in vivo, 528 h, time 22 day
Mus musculus [25] = experiment: In vivo inhibition of […] in NSG mouse xenografted with human MDA-MB-231 cells assessed as reduction of FASN level in tumor at 100 mg/kg, ip administered once daily for 22 days by Western blot analysis; assay type: functional, organism-based; conditions: time 22.0 day
Mus musculus [26] = experiment: In vivo inhibition of […] in NSG mouse xenografted with human MDA-MB-231 cells assessed as reduction of FASN level in tumor at 100 mg/kg, ip administered once daily for 22 days by immunohistochemical analysis; assay type: functional, organism-based; conditions: time 22.0 day
Mus musculus [27] = experiment: In vivo inhibition of […] in NSG mouse xenografted with human MDA-MB-231 cells assessed as reduction of PARP1 level in tumor at 100 mg/kg, ip administered once daily for 22 days by Western blot analysis; assay type: functional, organism-based; conditions: time 22.0 day
Mus musculus [28] = experiment: In vivo inhibition of […] in NSG mouse xenografted with human MDA-MB-231 cells assessed as reduction of PARP1 level in tumor at 100 mg/kg, ip administered once daily for 22 days by immunohistochemical analysis; assay type: functional, organism-based; conditions: time 22.0 day
Mus musculus [29] = experiment: In vivo inhibition of […] in NSG mouse xenografted with human MDA-MB-231 cells assessed as increase in gamma-H2AX level in tumor at 100 mg/kg, ip administered once daily for 22 days by Western blot analysis; assay type: functional, organism-based; conditions: time 22.0 day
Mus musculus [30] = experiment: In vivo inhibition of […] in NSG mouse xenografted with human MDA-MB-231 cells assessed as increase in gamma-H2AX level in tumor at 100 mg/kg, ip administered once daily for 22 days by immunohistochemical analysis; assay type: functional, organism-based; conditions: time 22.0 day
MDA-MB-231 [31] = experiment: Antiproliferative activity against human MDA-MB-231 cells assessed as reduction in cell survival incubated for 72 hrs by methylene blue cell survival assay; assay type: functional, cell-based
MDA-MB-468 [32] = experiment: Antiproliferative activity against human MDA-MB-468 cells assessed as reduction in cell survival incubated for 72 hrs by methylene blue cell survival assay; assay type: functional, cell-based
MDA-MB-436 = experiment: Antiproliferative activity against human MDA-MB-436 cells assessed as reduction in cell survival incubated for 72 hrs by methylene blue cell survival assay; assay type: functional, cell-based
HCC1937 = experiment: Antiproliferative activity against human HCC1937 cells assessed as reduction in cell survival incubated for 72 hrs by methylene blue cell survival assay; assay type: functional, cell-based
MDA-MB-468 [33] = experiment: Induction of ROS production in human MDA-MB-468 cells measured after 2 hrs by fluorescence based assay; assay type: functional, cell-based
MDA-MB-231 [34] = experiment: Induction of ROS production in human MDA-MB-231 cells measured after 2 hrs by fluorescence based assay; assay type: functional, cell-based
Fatty acid synthase [35] = biological target: T1, Fatty acid synthase; experiment: Inhibition of human FASN enoyl reductase activity using crotonyl CoA as substrate assessed as inhibition of substrate […] measured every 1 min for 10 mins in the presence of NADPH by fluorescence based assay
Target sequence in this assay (P49327 whole entry): as the sequence (P49327 whole entry, looked up) above

SMILES	inhibition (MDA-MB-468 [7])	inhibition (MDA-MB-231 [8])	inhibition (Fatty acid synthase [9])	Activity (MDA-MB-468 [10])	Activity (MDA-MB-231 [11])	Activity (MDA-MB-231 [12])	Activity (MDA-MB-468 [13])	Activity (MDA-MB-231 [14])	Activity (MDA-MB-468 [15])	Activity (MDA-MB-231 [16])	Activity (MDA-MB-468 [17])	Activity [19]	Activity [20]	Activity [21]	other results
Cc1c(OCC(F)(F)F)ccnc1CSc1nc2ccc(O)cc2[nH]1	Active	Active	Active	Active	Active	Dde	Dde	Active	Active	Dde	Dde	Toxic	Toxic	Toxic	Activity (MDA-MB-468 [1]): Active; Activity (MDA-MB-468 [2]): Dde; Activity (MDA-MB-468 [3]): Dde; Activity (MDA-MB-231 [4]): Dde; Activity (MDA-MB-231 [5]): Dde; Activity (MDA-MB-231 [6]): Active; Activity (MDA-MB-231 [18]): Active; Activity (MDA-MB-231 [22]): Active; Activity (MDA-MB-231 [23]): Active; Activity [24]: Non-Toxic; inhibition (Mus musculus [25]): Active; inhibition (Mus musculus [26]): Active; inhibition (Mus musculus [27]): Active; inhibition (Mus musculus [28]): Active; inhibition (Mus musculus [29]): Active; inhibition (Mus musculus [30]): Active; Activity (MDA-MB-231 [31]): Active; Activity (MDA-MB-468 [32]): Active; Activity (MDA-MB-436): Active; Activity (HCC1937): Active
CC1=CC(=O)c2ccccc2C1=O															Activity (MDA-MB-468 [33]): Active; Activity (MDA-MB-231 [34]): Active
Cc1c(OCC(F)(F)F)ccnc1C[S+]([O-])c1nc2ccccc2[nH]1 (stereo unspecified) [LANSOPRAZOLE]	Active	Active	Active	Active	Active	Dde	Dde	Active	Active	Dde	Dde	Toxic	Toxic	Toxic	Ki (Fatty acid synthase [35]): 1.7 µM

Source: ChEMBL document CHEMBL5108079, “Therapeutic Activity of the Lansoprazole Metabolite 5-Hydroxy Lansoprazole Sulfide in Triple-Negative Breast Cancer by Inhibiting the Enoyl Reductase of Fatty Acid Synthase” (J Med Chem, 2022)
